This assay deals with T1, human FFAR1 (GPR40) (Homo sapiens, UniProt O14842).
T1 construct: Flag; expressed in transfected cells; host or cells: HEK293T
Put plainly: NFAT-RE-based reporter gene activity assay (Dual-Glo luciferase) for GPR40 agonistic activity in co-transfected HEK293T cells. Type of assay: cell-based. To be noted: 4-hour treatment; for Efficacy (%): class symbols. The source says:
The pcDNA3.0-flag-FFAR1 (GPR40) plasmid was constructed using conventional molecular cloning methods. The main steps were as follows: The full-length cDNA sequence of human FFAR1 (GPR40) (NM_005303.3) was inserted into the HindIII and XbaI restriction sites of the pcDNA3.0 vector via PCR technology, resulting in the pcDNA3.0-flag-FFAR1 (GPR40) plasmid; pGL4.30 [luc2P NFAT-RE] (# E8481) and pRL-TK (#E2241) plasmids were both purchased from Promega; the plasmids were transformed into DH5α E. coli using the CaCl2 method, further cultured and amplified, and then purified using a plasmid extraction kit (TIANGEN, # DP117) to obtain the corresponding plasmid DNA.
HEK293T cells were seeded in a 96-well plate at a density of 1 × 10^4/well one day prior to plasmid transfection. Cell transfection was performed according to the instructions of the transfection reagent FuGENE® HD (Promega, # E2311). The main steps were as follows: Taking one well as an example, plasmids pcDNA3.0-flag-FFAR1 (GPR40), pGL4.30 [luc2P NFAT-RE], and pRL-TK were added at ratios of 50 ng, 50 ng, and 5 ng, respectively, into 10 µL of Opti-MEM™ I medium (Gibco, #11058021) and mixed thoroughly; then, 0.2 µL of FuGENE® HD was added, mixed thoroughly, and allowed to stand at room temperature for 5 minutes; finally, this 10 µL mixture was added to the cell well containing 100 µL of culture medium. 24 hours after co-transfection, the compounds were serially diluted at half-logarithmic intervals with 1 µM as the highest concentration, resulting in 10 concentration gradients, which were added to the cell culture medium for a 4-hour treatment.
After 4 hours of compound treatment, the cells were assayed according to the instructions of the Dual-Glo® Luciferase Assay System (Promega, # E2940). The main steps were as follows: 50 µL of culture medium was aspirated from each well and discarded, followed by the addition of 50 µL of Dual-Glo® Luciferase Reagent, and the mixture was shaken at room temperature for 10 minutes. Then, 80 µL of the lysate reaction solution was transferred to a white opaque optiPlate-96 well plate, and the luminescence signal of Firefly luciferase (Firefly-Luc) was measured using an MD i3x multifunctional microplate reader. Subsequently, 40 µL of Dual-Glo® Stop & Glo® Reagent was added, and the mixture was shaken at room temperature for 10 minutes. Finally, the luminescence signal of Renilla luciferase (Renilla-Luc) was measured using the MD i3x multifunctional microplate reader. The ratio of Firefly-Luc/Renilla-Luc was used as the compound's agonistic activity toward GPR40, and normalization was performed using the ratio of the solvent DMSO group. A dose-response curve was fitted using a four-parameter model with GraphPad Prism 8.0 software to calculate the EC50 value.
(In general: A reporter such as luciferase makes a cellular process visible.)

Each structure is given as a SMILES string.

T1 sequence (O14842 whole entry): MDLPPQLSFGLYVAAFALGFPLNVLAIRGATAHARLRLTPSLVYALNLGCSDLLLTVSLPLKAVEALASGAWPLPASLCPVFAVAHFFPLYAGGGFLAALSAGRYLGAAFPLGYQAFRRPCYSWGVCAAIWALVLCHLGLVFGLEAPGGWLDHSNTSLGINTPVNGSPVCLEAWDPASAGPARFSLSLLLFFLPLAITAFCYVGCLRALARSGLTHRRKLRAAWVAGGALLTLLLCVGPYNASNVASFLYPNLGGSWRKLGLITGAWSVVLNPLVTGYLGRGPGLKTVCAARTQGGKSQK

Consider `CC(C)(C)n1cc(-c2c(C3CCN(c4cccc(C5CC5)c4)CC3)oc3cc(C(CC(=O)O)C4CC4)ccc23)cn1` (centres unmarked) [Compound 45], for which the half-maximal effective concentration (EC50) lay within 100 to 500 nM and the “Efficacy (%)” value is “†† (150 ≥ Efficacy (%) > 100)”.

With `COc1cccc(N2CCC(c3oc4cc(C(CC(=O)O)C5CC5)ccc4c3-c3cnn(C(C)(C)CF)c3)CC2)c1` (centres unmarked) [Compound 47], the half-maximal effective concentration (EC50) lay in the range of 100 to 500 nM and the “Efficacy (%)” value is listed as “†† (150 ≥ Efficacy (%) > 100)”.

In the case of `COCC(C)(C)n1cc(-c2c(C3CCN(c4cccc(OC)c4)CC3)oc3cc(C(CC(=O)O)C4CC4)ccc23)cn1` (centres unmarked) [Compound 48], the EC50 is 100 to 500 nM and the “Efficacy (%)” value was “†† (150 ≥ Efficacy (%) > 100)”.

Regarding `COc1cccc(N2CCC(c3oc4cc([C@@H](CC(=O)O)C5CC5)ccc4c3-c3nnc(C(C)(C)C(F)(F)F)o3)CC2)c1` [Compound 49], the EC50 was no more than 10 nM and the “Efficacy (%)” value is given as “†† (150 ≥ Efficacy (%) > 100)”.

For `CNC(=O)C(C)(C)n1cc(-c2c(C3CCN(c4cccc(OC)c4)CC3)oc3cc(C(CC(=O)O)C4CC4)ccc23)cn1` (centres unmarked) [Compound 52], the concentration giving a half-maximal response (EC50) is 100 to 500 nM and the “Efficacy (%)” value was “† (100 ≥ Efficacy (%) > 50)”.

Take `COc1cccc(N2CCC(c3oc4cc(C(CC(=O)O)C5CC5)ccc4c3-c3cnn(C(C)(C)C(=O)N(C)C)c3)CC2)c1` (centres unmarked) [Compound 53]: the half-maximal effective concentration (EC50) was in the range of 100 to 500 nM and the “Efficacy (%)” value is recorded as “†† (150 ≥ Efficacy (%) > 100)”.

Take `COc1cccc(N2CCC(c3oc4cc([C@H](C5CC5)C(F)C(=O)O)ccc4c3-c3cnn(C(C)(C)C)c3)CC2)c1` (some centres unmarked) [Compound 54]: the EC50 was 10 to 100 nM and the “Efficacy (%)” value was “†† (150 ≥ Efficacy (%) > 100)”.

As for `COc1cccc(N2CCC(c3oc4cc([C@H](C5CC5)C(C)C(=O)O)ccc4c3-c3cnn(C(C)(C)C)c3)CC2)c1` (some centres unmarked) [Compound 55], the EC50 is no more than 10 nM and the “Efficacy (%)” value is given as “†† (150 ≥ Efficacy (%) > 100)”.

`COc1cccc(N2CCC(c3oc4cc(C(CCO)C5CC5)ccc4c3-c3cnn(C(C)(C)C)c3)CC2)c1` (centres unmarked) [Compound 56]: the 50% effective concentration (EC50) fell in the range of 100 to 500 nM and the “Efficacy (%)” value was “† (100 ≥ Efficacy (%) > 50)”.

As for `COc1cccc(N2CCC(c3oc4cc(CC(C)C(=O)O)ccc4c3-c3cnn(C(C)(C)C)c3)CC2)c1` (centres unmarked) [Compound 60], the EC50 fell in the range of 100 to 500 nM and the “Efficacy (%)” value is recorded as “†† (150 ≥ Efficacy (%) > 100)”.

Take `CCC(Cc1ccc2c(-c3cnn(C(C)(C)C)c3)c(C3CCN(c4cccc(OC)c4)CC3)oc2c1)C(=O)O` (centres unmarked) [Compound 61]: the concentration giving a half-maximal response (EC50) is 100 to 500 nM and the “Efficacy (%)” value is listed as “†† (150 ≥ Efficacy (%) > 100)”.

In the case of `COc1cccc(N2CCC(c3oc4cc(OC(C)C(=O)O)ccc4c3-c3cnn(C(C)(C)C)c3)CC2)c1` (centres unmarked) [Compound 65], the concentration for a half-maximal effect (EC50) was 100 to 500 nM and the “Efficacy (%)” value is recorded as “†† (150 ≥ Efficacy (%) > 100)”.

With `CCC(CC(=O)O)c1ccc2c(-c3cnn(C(C)(C)C)c3)c(C3CCN(c4cccc(OC)c4)CC3)oc2c1` (centres unmarked) [Compound 66], the EC50 was 100 to 500 nM and the “Efficacy (%)” value is listed as “†† (150 ≥ Efficacy (%) > 100)”.

Take `COc1cccc(N2CCC(c3oc4cc(C(CP(=O)(O)OC)C5CC5)ccc4c3-c3cnn(C(C)(C)C)c3)CC2)c1` (centres unmarked) [Compound 70]: the concentration for a half-maximal effect (EC50) was greater than 500 nM and the “Efficacy (%)” value is given as “†† (150 ≥ Efficacy (%) > 100)”.

`COc1cccc(N2CCC(c3oc4cc([C@H](C5CC5)C(C)(C)C(N)=O)ccc4c3-c3cnn(C(C)(C)C)c3)CC2)c1` [Compound 71]: the EC50 was in the range of 100 to 500 nM and the “Efficacy (%)” value is recorded as “†† (150 ≥ Efficacy (%) > 100)”.

Turning to `COc1cccc(N2CCC(c3oc4cc(C(CC(=O)O)C5CC5)ccc4c3-c3cnn(C(C)(C)C)c3)CC2)n1` (centres unmarked) [Compound 79], the EC50 was in the range of 100 to 500 nM and the “Efficacy (%)” value is “†† (150 ≥ Efficacy (%) > 100)”.

Take `COc1cccc(N2CCC(c3oc4cc([C@@H](CC(=O)O)C5CC5)ccc4c3-c3ccc4c(c3)C3(CCCCC3)c3ccccc3-4)CC2)c1` [Compound 81]: the EC50 was 100 to 500 nM and the “Efficacy (%)” value is “† (100 ≥ Efficacy (%) > 50)”.

As to `CNC(=O)c1cc(-c2c(C3CCN(c4cccc(OC)c4)CC3)oc3cc(C(CC(=O)O)C4CC4)ccc23)cn1C` (centres unmarked) [Compound 82], the EC50 was 100 to 500 nM and the “Efficacy (%)” value was “† (100 ≥ Efficacy (%) > 50)”.

With `COc1ccnc(N2CCC(c3oc4cc(C(CC(=O)O)C5CC5)ccc4c3-c3cnn(C(C)(C)C)c3)CC2)c1` (centres unmarked) [Compound 83], the EC50 was 100 to 500 nM and the “Efficacy (%)” value is on record as “† (100 ≥ Efficacy (%) > 50)”.

As to `COc1ccc(OC)c(N2CCC(c3oc4cc(C(CC(=O)O)C5CC5)ccc4c3-c3cnn(C(C)(C)C)c3)CC2)c1` (centres unmarked) [Compound 85], the EC50 was 100 to 500 nM and the “Efficacy (%)” value was “†† (150 ≥ Efficacy (%) > 100)”.

In the case of `COc1cccc(N2CCC(c3oc4cc(C(CC(=O)O)C5CC5)ccc4c3-c3cnn(C(C)(C)C)c3)CC2)c1F` (centres unmarked) [Compound 86], the EC50 lay in the range of 10 to 100 nM and the “Efficacy (%)” value is given as “††† (Efficacy (%) > 150)”.

For `COc1cccc(N2CCC(c3oc4cc([C@@H](CC(=O)O)C5CC5)ccc4c3-c3cnn(C(C)(C)C)c3)CC2)c1F` [Compound 87], the concentration giving a half-maximal response (EC50) fell in the range of 10 to 100 nM and the “Efficacy (%)” value was “†† (150 ≥ Efficacy (%) > 100)”.

`COc1cccc(N2CCC(c3oc4cc(C(CC(=O)O)C5CC5)ccc4c3-c3cnn(C(C)(C)C)c3)CC2)c1Cl` (centres unmarked) [Compound 88]: the EC50 was in the range of 100 to 500 nM and the “Efficacy (%)” value is on record as “†† (150 ≥ Efficacy (%) > 100)”.

With `COc1ccc(Cl)c(N2CCC(c3oc4cc(C(CC(=O)O)C5CC5)ccc4c3-c3cnn(C(C)(C)C)c3)CC2)c1` (centres unmarked) [Compound 90], the EC50 lay in the range of 100 to 500 nM and the “Efficacy (%)” value is reported as “† (100 ≥ Efficacy (%) > 50)”.

On to `CNC(=O)c1ccc(OC)cc1N1CCC(c2oc3cc(C(CC(=O)O)C4CC4)ccc3c2-c2cnn(C(C)(C)C)c2)CC1` (centres unmarked) [Compound 91], for which the EC50 lay in the range of 100 to 500 nM and the “Efficacy (%)” value is on record as “† (100 ≥ Efficacy (%) > 50)”.

For the compound `COc1ccc(C(=O)N(C)CC(C)(C)C)c(N2CCC(c3oc4cc([C@@H](CC(=O)O)C5CC5)ccc4c3-c3cnn(C(C)(C)C)c3)CC2)c1` [Compound 92], the EC50 lay within 100 to 500 nM and the “Efficacy (%)” value is given as “††† (Efficacy (%) > 150)”.

Turning to `COc1ccc(C(=O)N(C)c2ccccc2)c(N2CCC(c3oc4cc([C@@H](CC(=O)O)C5CC5)ccc4c3-c3cnn(C(C)(C)C)c3)CC2)c1` [Compound 93], the 50% effective concentration (EC50) fell in the range of 100 to 500 nM and the “Efficacy (%)” value was “††† (Efficacy (%) > 150)”.

For `COc1ccc(C(=O)Nc2cccc(C)n2)c(N2CCC(c3oc4cc(C(CC(=O)O)C5CC5)ccc4c3-c3cnn(C(C)(C)C)c3)CC2)c1` (centres unmarked) [Compound 94], the 50% effective concentration (EC50) lay in the range of 100 to 500 nM and the “Efficacy (%)” value is on record as “† (100 ≥ Efficacy (%) > 50)”.

Turning to `CCCCCCNC(=O)c1ccc(OC)cc1N1CCC(c2oc3cc(C(CC(=O)O)C4CC4)ccc3c2-c2cnn(C(C)(C)C)c2)CC1` (centres unmarked) [Compound 95], the concentration giving a half-maximal response (EC50) lay in the range of 100 to 500 nM and the “Efficacy (%)” value is listed as “†† (150 ≥ Efficacy (%) > 100)”.

`CC(C)(C)n1cc(-c2c(C3CCN(c4ccc5c(c4)OC(F)(F)O5)CC3)oc3cc([C@@H](CC(=O)O)C4CC4)ccc23)cn1` [Compound 96]: the concentration for a half-maximal effect (EC50) lay within 100 to 500 nM and the “Efficacy (%)” value is given as “††† (Efficacy (%) > 150)”.

For the compound `CC(C)(C)n1cc(-c2c(C3CCN(c4ccc5c(c4)OCO5)CC3)oc3cc([C@@H](CC(=O)O)C4CC4)ccc23)cn1` [Compound 97], the EC50 is 10 to 100 nM and the “Efficacy (%)” value is “†† (150 ≥ Efficacy (%) > 100)”.

Usually EC50 stands for the concentration needed to bring the measured effect to its halfway point. A higher EC50 goes with lower potency in that assay.

Source of the values: patent EP4682145A1, “BENZOHETEROCYCLIC COMPOUND, AND PREPARATION METHOD THEREFOR AND USE THEREOF” (Cascade Pharmaceuticals, Inc., priority 2023, dated 2024).
